Test results taken from US20230024302A1, “2,3,5-TRISUBSTITUTED PYRAZOLO[1,5-A]PYRIMIDINE COMPOUNDS” (Arcus Biosciences, Inc., priority 2019, published 2023).
Like-named read-outs stand apart in the source and are kept apart here.

Assays:
[1] = target: T1, PI3Kγ (Homo sapiens, UniProt P48736); assay: PI3Kγ cellular assay in THP-1 cells (AKT pS473 AlphaLISA); assay type: cell-based
T1 construct: host or cells: THP-1
Summary of the method: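 Serum-starved THP-1 cells (1.8×10^5/well, serum-free DMEM) treated with compounds from 4 nM to 30 μM in 2% DMSO, then stimulated and lysed.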

[2] = target: T2, PI3Kγ (p120γ) (Homo sapiens, UniProt P48736); assay: Inhibition of PI3K kinase activity (ADP Glo), PI3Kγ; settings: read-out: biochemical potency (PI3Kγ IC50)
T2 construct: purchased Promega V1761
Summary of the method: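 Recombinant p120γ (8 nM, 2× stock) was preincubated with compound for 1 h at rt in HEPES pH 7.4, NaCl, MgCl2 and 0.05% BSA. Reaction was started with PIP2 (0.1 mg/ml, 2×) and ATP (50 μM, 2×) and ran 60 min at rt. ADP formed was read by ADP-Glo luminescence, and IC50 came from a 4-parameter fit.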

[3] = Table 6, rhMCP-1 stimulated AKT pS473, read-out: cellular potency (PI3Kγ IC50)
[4] = Table 2, rhMCP-1 stimulated AKT pS473, read-out: cellular potency (PI3Kγ IC50)
[5] = Table 1, rhMCP-1 stimulated AKT pS473, read-out: cellular potency (PI3Kγ IC50)

T2 sequence (P48736 whole entry): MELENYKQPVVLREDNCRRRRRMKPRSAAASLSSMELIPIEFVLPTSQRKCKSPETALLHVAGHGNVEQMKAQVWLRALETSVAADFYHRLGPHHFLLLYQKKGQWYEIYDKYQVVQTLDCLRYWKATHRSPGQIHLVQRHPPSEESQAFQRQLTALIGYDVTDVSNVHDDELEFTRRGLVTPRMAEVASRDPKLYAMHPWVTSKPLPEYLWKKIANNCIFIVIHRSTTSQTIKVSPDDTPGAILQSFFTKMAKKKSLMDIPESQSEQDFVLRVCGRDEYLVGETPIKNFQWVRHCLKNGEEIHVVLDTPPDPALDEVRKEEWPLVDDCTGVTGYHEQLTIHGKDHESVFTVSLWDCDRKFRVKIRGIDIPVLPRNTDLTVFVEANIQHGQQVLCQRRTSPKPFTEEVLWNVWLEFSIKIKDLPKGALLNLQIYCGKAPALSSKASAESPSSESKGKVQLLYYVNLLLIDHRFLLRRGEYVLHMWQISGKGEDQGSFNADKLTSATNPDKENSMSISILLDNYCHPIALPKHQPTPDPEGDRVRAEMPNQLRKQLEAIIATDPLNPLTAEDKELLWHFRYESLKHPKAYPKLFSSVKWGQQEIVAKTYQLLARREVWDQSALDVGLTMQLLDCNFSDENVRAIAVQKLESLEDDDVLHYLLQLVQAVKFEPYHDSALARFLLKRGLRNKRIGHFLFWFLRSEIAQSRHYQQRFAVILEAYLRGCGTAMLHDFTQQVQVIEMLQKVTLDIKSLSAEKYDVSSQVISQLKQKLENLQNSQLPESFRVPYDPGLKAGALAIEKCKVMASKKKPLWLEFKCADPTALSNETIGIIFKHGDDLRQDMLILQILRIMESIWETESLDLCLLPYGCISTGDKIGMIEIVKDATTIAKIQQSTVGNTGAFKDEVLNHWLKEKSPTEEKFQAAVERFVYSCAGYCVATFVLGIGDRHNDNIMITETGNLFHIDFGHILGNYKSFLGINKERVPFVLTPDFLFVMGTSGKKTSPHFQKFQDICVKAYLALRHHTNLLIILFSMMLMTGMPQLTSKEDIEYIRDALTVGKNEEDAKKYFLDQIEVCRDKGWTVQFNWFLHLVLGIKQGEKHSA
T1 sequence (P48736 whole entry): as above

| Structure (SMILES) | IC50 [1, 4] [nM] | IC50 ([2]; Table 2, p120γ) [nM] | further results |
| --- | --- | --- | --- |
| C[C@@H](C1CC1)N1Cc2cc(-c3ccn4nc(N)c(C(=O)N[C@H]5CCC[C@H](N)C5)c4n3)cc(C(F)(F)F)c2C1=O [Example 367] |  |  | IC50 ([1]; Table 3, rhMCP-1 stimulated AKT pS473, read-out: cellular potency (PI3Kγ IC50)): > 1000 nM; IC50 ([2]; Table 3, p120γ): < 100 nM |
| C[C@@H](C1CC1)N1Cc2cc(-c3ccn4nc(N)c(C(=O)NCc5cccnc5)c4n3)cc(OC(F)(F)F)c2C1=O [Example 414] |  |  | IC50 [1, 3]: 100 to 1000 nM; IC50 ([2]; Table 6, p120γ): < 100 nM |
| Cc1cc(-c2ccn3nc(N)c(C(=O)NC4CC4)c3n2)cc2c1C(=O)N(CC1CC1)C2 [Example 307] | 100 to 1000 | < 100 |  |
| COC(=O)c1cc(NC(=O)c2c(N)nn3ccc(-c4cc5c(c(NS(C)(=O)=O)c4)C(=O)N([C@@H](C)C4CC4)C5)nc23)ccn1 [Example 375] |  |  | IC50 ([1]; AKT pS473, read-out: cellular potency (PI3Kγ IC50)): 100 to 1000 nM; IC50 [2]: < 100 nM |
| Cc1cc(-c2ccn3nc(N)c(C(=O)NC4(C#N)CC4)c3n2)cc2c1C(=O)N([C@@H](C)C1CC1)C2 [Example 268] | 100 to 1000 | < 100 |  |
| Cc1cc(-c2ccn3nc(N)c(C(=O)NC(C)CO)c3n2)cc2c1C(=O)N([C@H]1CCC[C@H](O)C1)C2 (stereo partly drawn) [Example 329] | > 1000 | < 100 |  |
| C[C@@H](C1CC1)N1Cc2cc(-c3ccn4nc(N)c(C(=O)N[C@@H](CO)C5CC5)c4n3)cc(C(C)(C)O)c2C1=O [Example 453] |  |  | IC50 [1, 3]: 100 to 1000 nM; IC50 ([2]; Table 6, p120γ): < 100 nM |
| Cc1cc(-c2ccn3nc(N)c(C(=O)N[C@H]4C[C@H](N)C4)c3n2)cc2c1C(=O)N([C@@H](C)C1CC1)C2 [Example 185] | 100 to 1000 | < 100 |  |
| C[C@@H](C1CC1)N1Cc2cc(-c3ccn4nc(N)c(C(=O)N[C@@H](CO)C5CC5)c4n3)cc(O[C@@H]3CCOC3)c2C1=O [Example 147, 2-Amino-N-[(1R)-1-cyclopropyl-2-hydroxyethyl]-5-{2-[(1S)-1-cyclopropylethyl]-1-oxo-7-[(3R)-oxolan-3-yloxy]-2,3-dihydro-1H-isoindol-5-yl}pyrazolo[1,5-a]pyrimidine-3-carboxamide] |  |  | IC50 [1, 5]: < 100 nM; IC50 ([2]; Table 1, p120γ): < 100 nM |
| C[C@@H](C1CC1)N1Cc2cc(-c3ccn4nc(N)c(C(=O)NC5CC5)c4n3)cc(O[C@H](C)C(F)(F)F)c2C1=O [Example 442] |  |  | IC50 [1, 3]: 100 to 1000 nM; IC50 ([2]; Table 6, p120γ): < 100 nM |
| Cc1cc(-c2ccn3nc(N)c(C(=O)NC(C)CO)c3n2)cc2c1C(=O)N([C@H](C)c1ccncc1)C2 (stereo partly drawn) [Example 330] | > 1000 | < 100 |  |
| CC(=O)N1CC(NC(=O)c2c(N)nn3ccc(-c4cc(C)c5c(c4)CN([C@@H](C)C4CC4)C5=O)nc23)C1 [Example 194] | 100 to 1000 | < 100 |  |
| CC[C@H](N1Cc2cc(-c3ccn4nc(N)c(C(=O)N[C@H](C)CO)c4n3)cc(Cl)c2C1=O)C(F)(F)F [Example 164, 2-Amino-5-{7-chloro-1-oxo-2-[(2S)-1,1,1-trifluorobutan-2-yl]-2,3-dihydro-1H-isoindol-5-yl}-N-[(2R)-1-hydroxypropan-2-yl]pyrazolo[1,5-a]pyrimidine-3-carboxamide] |  |  | IC50 [1, 5]: < 100 nM; IC50 ([2]; Table 1, p120γ): < 100 nM |
| Cc1cc(-c2ccn3nc(N)c(C(=O)Nc4cn(C)nc4C)c3n2)cc2c1C(=O)N([C@@H](C)C1CC1)C2 [Example 292] | 100 to 1000 | < 100 |  |
| Cc1cc(-c2ccn3nc(N)c(C(=O)N[C@@H](C)c4ccccn4)c3n2)cc2c1C(=O)N([C@@H](C)C1CC1)C2 [Example 217] | 100 to 1000 | < 100 |  |
| Cc1cc(NC(=O)c2c(N)nn3ccc(-c4cc5c(c(NS(C)(=O)=O)c4)C(=O)N([C@@H](C)C4CC4)C5)nc23)ccn1 [Example 101, (S)-2-Amino-5-(2-(1-cyclopropylethyl)-7-(methylsulfonamido)-1-oxoisoindolin-5-yl)-N-(2-methylpyridin-4-yl)pyrazolo[1,5-a]pyrimidine-3-carboxamide] |  |  | IC50 [1, 5]: < 100 nM; IC50 ([2]; Table 1, p120γ): < 100 nM |
| Cc1cc(-c2ccn3nc(N)c(C(=O)N[C@H]4CCCC[C@H]4O)c3n2)cc2c1C(=O)N([C@@H](C)C1CC1)C2 [Example 275] | 100 to 1000 | < 100 |  |
| C[C@H](CO)NC(=O)c1c(N)nn2ccc(-c3cc4c(c(OC(F)(F)F)c3)C(=O)N([C@@H](C)C(F)(F)F)C4)nc12 [Example 27, 2-Amino-N-[(2R)-1-hydroxypropan-2-yl]-5-[1-oxo-7-(trifluoromethoxy)-2-[(2S)-1,1,1-trifluoropropan-2-yl]-2,3-dihydro-1H-isoindol-5-yl]pyrazolo[1,5-a]pyrimidine-3-carboxamide] |  |  | IC50 [1, 5]: < 100 nM; IC50 ([2]; Table 1, p120γ): < 100 nM |
